Results taken from patent publication US8158607B2, “Crystalline form of lamivudine” (Lupin Limited, priority 2006, dated 2012).

Experiments:
[1] = Polymorphic stability when slurried in water; type: physicochemical; details: slurried in water at ambient temperature for 24 to 48 hours
Experimental: A suspension of the Lamivudine form-II (5.0 gm) in water (5.0 ml) was stirred at 25° C. for 48 hours. The suspension was cooled and stirred at 10° C. for one hour. The product was filtered and then dried under vacuum at 45° C. for 24 hours. Yield=4.5 gms
A suspension of the Lamivudine form-I (2.0 gm) in water (2.0 ml) was stirred at 25° C. for 24 hours. The suspension was cooled and stirred at 10° C. for one hour. The product was filtered and then dried under vacuum at 45° C. for 24 hours. Yield=1.6 gms

[2] = background, U.S. Pat. No. 5,905,082; cited from earlier work
[3] = Flow property (angle of repose); type: physicochemical; details: procedure of Lachman et al., page 317
[4] = Bulk density and tap density of crystal forms; type: physicochemical
From the text: The novel crystalline hemihydrate form (form III) of Lamivudine has better flow property and bulk density, which are important parameters for formulation (Table I). [table]

[5] = Bioavailability; type: in vivo; details: compared with known forms
[6] = Storage stability at 40±2° C. RH 75±5%; type: physicochemical; details: stored at 40±2° C. RH 75±5%
[7] = Polymorphic stability during milling; type: physicochemical
[8] = Tablet dissolution in 0.1 N HCl, paddle; type: physicochemical; details: combination tablet, 50 rpm, 900 ml

Change of crystal form when slurried in water [1]	Flow Property (Angle of Repose) [3]	Bulk Density [4]	Tap Density [4]	Bioavailability [5]	Stability on storage [6]	Dissolution (%) ([8]; 5 minutes)	Dissolution (%) ([8]; 10 minutes)	Dissolution (%) ([8]; 20 minutes)	Dissolution (%) ([8]; 30 minutes)	Dissolution (%) ([8]; 40 minutes)	SMILES	Change of crystal form during milling and formulation operation [2]	Change in crystal structure during milling [7]
get converted to Form III	33.66°	0.46 gm/cc	0.60 gm/cc	–	–	–	–	–	–	–	Nc1cc[n+](C2CSC(CO)O2)c(=O)[nH]1 (stereo not drawn) [Form I, (2R-cis)-4-amino-1-[2-(hydroxymethyl)-1,3-oxathiolan-5-yl]-2(1H)-pyrimidinone]	converts to form II	–
get converted to Form III	32.00°	0.38 gm/cc	0.55 gm/cc	–	–	–	–	–	–	–	Nc1cc[n+](C2CSC(CO)O2)c(=O)[nH]1 (stereo not drawn) [Form II, (2R-cis)-4-amino-1-[2-(hydroxymethyl)-1,3-oxathiolan-5-yl]-2(1H)-pyrimidinone]	–	–
–	32.00°	0.64 gm/cc	0.83 gm/cc	comparable bioavailability	stable for more than three months	–	–	–	–	–	Nc1cc[n+](C2CSC(CO)O2)c(=O)[nH]1 (stereo not drawn) [Form III, (2R-cis)-4-amino-1-[2-(hydroxymethyl)-1,3-oxathiolan-5-yl]-2(1H)-pyrimidinone]	–	does not undergo any change in crystal structure during milling
–	–	–	–	–	–	80.9%	86.2%	92.0%	96.0%	96.7%	Nc1cc[n+](C2CSC(CO)O2)c(=O)[nH]1 (stereo not drawn) [Lamivudine, (2R-cis)-4-amino-1-[2-(hydroxymethyl)-1,3-oxathiolan-5-yl]-2(1H)-pyrimidinone]	–	–
–	–	–	–	–	–	81.1%	87.8%	95.2%	100.4%	101.5%	Cc1cn([C@H]2C[C@H](N=[N+]=[N-])[C@@H](CO)O2)c(=O)[nH]c1=O [Zidovudine]	–	–
